Measured values reported in ChEMBL document CHEMBL1201862, “PubChem BioAssay data set” (2004).
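Tested at 5 concentrations; 48 h exposure; 96-well plates; endpoints linearly interpolated, else capped at highest concentration. At the GI50, growth is halved.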 Activity calls are given as the source filed them. No stated cut-off is given here; in the data, active = GI50 up to about 1.1 µM and inactive = higher.

What was measured:
Assay in all cases: growth of human tumour cells (NCI), 48 h
HT-29 = test system: HT-29
COLO 205 = test system: COLO 205
MOLT-4 = test system: MOLT-4
SNB-75 = test system: SNB-75
SF-268 = test system: SF-268
MCF7 = test system: MCF7
M14 = test system: M14
HL-60 = test system: HL-60
Malme-3M = test system: Malme-3M
UO-31 = test system: UO-31
T47D = test system: T47D
SW-620 = test system: SW-620
OVCAR-5 = test system: OVCAR-5
MDA-MB-435 = test system: MDA-MB-435
SK-OV-3 = test system: SK-OV-3
SF-539 = test system: SF-539
CAKI-1 = test system: CAKI-1
HCT-15 = test system: HCT-15
NCI/ADR-RES = test system: NCI/ADR-RES
OVCAR-3 = test system: OVCAR-3

Cc1[nH]n(-c2nc(O)c(C)c(=O)[nH]2)c(=O)c1CCO
GI50 (HT-29): > 100 µM (inactive) | GI50 (COLO 205): > 100 µM (inactive) | GI50 (MOLT-4): > 100 µM (inactive) | GI50 (SNB-75): 45.6 µM (inactive) | GI50 (SF-268): > 100 µM (inactive) | GI50 (MCF7): > 100 µM (inactive) | GI50 (M14): > 100 µM (inactive) | GI50 (HL-60): > 100 µM (inactive) | GI50 (Malme-3M): > 100 µM (inactive) | GI50 (UO-31): > 100 µM (inactive) | GI50 (T47D): > 100 µM (inactive) | GI50 (SW-620): > 100 µM (inactive) | GI50 (OVCAR-5): > 100 µM (inactive) | GI50 (MDA-MB-435): > 100 µM (inactive) | GI50 (SK-OV-3): > 100 µM (inactive) | GI50 (SF-539): > 100 µM (inactive) | GI50 (CAKI-1): > 100 µM (inactive) | GI50 (HCT-15): > 100 µM

CCOC(=O)C(=O)CC(=O)C1=C(c2ccccc2OC)CC(c2cccs2)=CC1=O
GI50 (HT-29): 50.2 µM (inactive) | GI50 (COLO 205): 39.7 µM (inactive) | GI50 (NCI/ADR-RES): 46 µM (inactive) | GI50 (MOLT-4): 37.1 µM (inactive) | GI50 (SNB-75): 0.418 µM (active) | GI50 (SF-268): > 100 µM (inactive) | GI50 (M14): 26.1 µM (inactive) | GI50 (HL-60): 55 µM (inactive) | GI50 (Malme-3M): > 100 µM (inactive) | GI50 (UO-31): > 100 µM (inactive) | GI50 (T47D): 90.6 µM (inactive) | GI50 (SW-620): 72.3 µM (inactive) | GI50 (OVCAR-5): > 100 µM (inactive) | GI50 (MDA-MB-435): 35.9 µM (inactive) | GI50 (SK-OV-3): 29.7 µM (inactive) | GI50 (SF-539): 67.1 µM (inactive) | GI50 (OVCAR-3): 41.9 µM (inactive) | GI50 (CAKI-1): 57.1 µM (inactive) | GI50 (HCT-15): 82.4 µM

[N-]=[N+]=Nc1cccc(-c2nnc(Cl)cc2O)c1
GI50 (HT-29): > 100 µM (inactive) | GI50 (COLO 205): > 100 µM (inactive) | GI50 (NCI/ADR-RES): > 100 µM (inactive) | GI50 (MOLT-4): > 100 µM (inactive) | GI50 (SNB-75): 89.7 µM (inactive) | GI50 (SF-268): > 100 µM (inactive) | GI50 (MCF7): > 100 µM (inactive) | GI50 (M14): > 100 µM (inactive) | GI50 (HL-60): > 100 µM (inactive) | GI50 (Malme-3M): > 100 µM (inactive) | GI50 (UO-31): > 10 µM (inactive) | GI50 (T47D): > 100 µM (inactive) | GI50 (SW-620): > 100 µM (inactive) | GI50 (MDA-MB-435): > 100 µM (inactive) | GI50 (SK-OV-3): > 100 µM (inactive) | GI50 (SF-539): > 100 µM (inactive) | GI50 (OVCAR-3): > 100 µM (inactive) | GI50 (HCT-15): > 100 µM

CCCCCCCCCC[S+]([O-])CC(CO)NC(=O)/C=C/c1c(C)nc(O)nc1O (stereo not drawn)
GI50 (HT-29): 1.36 µM (inactive) | GI50 (COLO 205): 0.247 µM (active) | GI50 (NCI/ADR-RES): 4.43 µM (inactive) | GI50 (MOLT-4): 0.518 µM (active) | GI50 (SNB-75): 0.272 µM (active) | GI50 (SF-268): 0.149 µM (active) | GI50 (MCF7): 0.252 µM (active) | GI50 (M14): 11 µM (inactive) | GI50 (HL-60): 0.815 µM (active) | GI50 (Malme-3M): 0.47 µM (active) | GI50 (UO-31): 1.28 µM (inactive) | GI50 (T47D): 20.8 µM (inactive) | GI50 (SW-620): 0.535 µM (active) | GI50 (OVCAR-5): 1.71 µM (inactive) | GI50 (MDA-MB-435): 14 µM (inactive) | GI50 (SK-OV-3): 1.38 µM (inactive) | GI50 (SF-539): 0.484 µM (active) | GI50 (HCT-15): 1.28 µM

CCN(CC)CCC(=O)N1C/C(=C/c2ccccc2)C(=O)/C(=C\c2ccccc2)C1
GI50 (HT-29): 0.811 µM (active) | GI50 (COLO 205): 2.31 µM (inactive) | GI50 (MOLT-4): 0.28 µM (active) | GI50 (SNB-75): 4.08 µM (inactive) | GI50 (SF-268): 2.04 µM (inactive) | GI50 (MCF7): 0.372 µM (active) | GI50 (M14): 1.52 µM (inactive) | GI50 (HL-60): 0.383 µM (active) | GI50 (Malme-3M): 2.58 µM (inactive) | GI50 (UO-31): 1.71 µM (inactive) | GI50 (T47D): 1.19 µM (inactive) | GI50 (SW-620): 0.195 µM (active) | GI50 (OVCAR-5): 3.45 µM (inactive) | GI50 (MDA-MB-435): 1.7 µM (inactive) | GI50 (SK-OV-3): 8.57 µM (inactive) | GI50 (SF-539): 3.83 µM (inactive) | GI50 (OVCAR-3): 3.06 µM (inactive) | GI50 (CAKI-1): 2.3 µM (inactive) | GI50 (HCT-15): 1.24 µM

COc1ccc2c(N=[N+]=[N-])c(-c3ccccc3)c(=O)oc2c1
GI50 (HT-29): 32.1 µM (inactive) | GI50 (COLO 205): 56.8 µM (inactive) | GI50 (MOLT-4): 21.5 µM (inactive) | GI50 (SNB-75): > 100 µM (inactive) | GI50 (SF-268): 78.5 µM (inactive) | GI50 (MCF7): 36.2 µM (inactive) | GI50 (M14): 57 µM (inactive) | GI50 (HL-60): 22.5 µM (inactive) | GI50 (Malme-3M): 33.3 µM (inactive) | GI50 (T47D): 22.8 µM (inactive) | GI50 (SW-620): > 100 µM (inactive) | GI50 (MDA-MB-435): 45.8 µM (inactive) | GI50 (SK-OV-3): 76.6 µM (inactive) | GI50 (SF-539): > 100 µM (inactive) | GI50 (CAKI-1): 30.1 µM (inactive) | GI50 (HCT-15): 56.6 µM
